Values of other authors in PMC6005628, “Molecular genetic characteristics of influenza A virus clinically isolated during 2011‐2016 influenza seasons in Korea” (Influenza and Other Respiratory Viruses, 2018).

Tested on: NA protein with single I222V/M substitution

CCOC(=O)C1=C[C@@H](OC(CC)CC)[C@H](NC(C)=O)[C@@H](N)C1 [oseltamivir]
resistance associated with NA substitution: marginal levels of resistance
